Experimental data reported in patent publication US10689377B2 (Mirati Therapeutics, Inc., priority 2017, dated 2020).
pIC50: −log10 of the molar value. Structures can show the parent of a compound that is named as a salt.

Target: KRas G12C (Homo sapiens, UniProt P01116, G12C)
Experiment: Cellular inhibition of KRas G12C measured by Phospho-ERK in NCI-H358 cells
Assay type: cell-based
Conditions: pERK(Thr202/Tyr204) normalized with GAPDH, NCI-H358 cells, 3 hours; read-out: IC50
Method in brief: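 Readout is pERK(Thr202/Tyr204) immunofluorescence normalized to GAPDH, expressed as percent of DMSO control and fitted with a 4-parameter curve for IC50. Attached NCI-H358 cells received compound for 3 hours in 0.5% DMSO, followed by fixation and methanol permeabilization.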

Chain of KRas G12C (P01116 1-188 isoform P01116-2 G12C): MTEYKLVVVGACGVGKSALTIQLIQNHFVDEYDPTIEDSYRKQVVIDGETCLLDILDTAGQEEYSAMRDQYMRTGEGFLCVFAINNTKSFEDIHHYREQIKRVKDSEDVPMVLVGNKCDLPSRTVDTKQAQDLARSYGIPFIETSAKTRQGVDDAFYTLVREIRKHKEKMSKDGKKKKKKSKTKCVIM

SMILES	pIC50
C=CC(=O)N1CCN(c2nc(OCCCN3CCOCC3)nc3c2CCN(c2cc(O)ccc2C)C3)CC1 [Example 105, 1-(4-(7-(5-hydroxy-2-methylphenyl)-2-(3-morpholinopropoxy)-5,6,7,8-tetrahydropyrido[3,4-d]pyrimidin-4-yl)piperazin-1-yl)prop-2-en-1-one]	< 6.00
C=CC(=O)N1CCN(c2nc(OCCCN3CCOCC3)nc3c2CCN(c2ccc(O)cc2OC(F)(F)F)C3)CC1 [Example 106, 1-(4-(7-(4-hydroxy-2-(trifluoromethoxy)phenyl)-2-(3-morpholinopropoxy)-5,6,7,8-tetrahydropyrido[3,4-d]pyrimidin-4-yl)piperazin-1-yl)prop-2-en-1-one]	< 6.00
C=CC(=O)N1CCN(c2nc(OCCN(C)CCOC)nc3c2CCN(c2cc(O)cc4ccccc24)C3)CC1 [Example 107, 1-(4-(7-(3-hydroxynaphthalen-1-yl)-2-(2-((2-methoxyethyl)(methyl)amino)ethoxy)-5,6,7,8-tetrahydropyrido[3,4-d]pyrimidin-4-yl)piperazin-1-yl)prop-2-en-1-one]	< 6.00
C=CC(=O)N1CCN(c2nc(OCCN3CCC(OC)CC3)nc3c2CCN(c2cc(O)cc4ccccc24)C3)CC1 [Example 108, 1-(4-(7-(3-hydroxynaphthalen-1-yl)-2-(2-(4-methoxypiperidin-1-yl)ethoxy)-5,6,7,8-tetrahydropyrido[3,4-d]pyrimidin-4-yl)piperazin-1-yl)prop-2-en-1-one]	6.00 to 10.00
C=CC(=O)N1CCN(c2nc(OCCN3CCC(F)(F)CC3)nc3c2CCN(c2cc(O)cc4ccccc24)C3)CC1 [Example 109]	< 6.00
C=CC(=O)N1CCN(c2nc(OC[C@@H]3CCN(C)C3)nc3c2CCN(c2cc(O)cc4ccccc24)C3)CC1 [Example 110, (R)-1-(4-(7-(3-hydroxynaphthalen-1-yl)-2-((1-methylpyrrolidin-3-yl)methoxy)-5,6,7,8-tetrahydropyrido[3,4-d]pyrimidin-4-yl)piperazin-1-yl)prop-2-en-1-one]	6.00 to 10.00
C=CC(=O)N1CCN(c2nc(OCCN3CCC[C@H](F)C3)nc3c2CCN(c2cc(O)cc4ccccc24)C3)CC1 [Example 111, (S)-1-(4-(2-(2-(3-fluoropiperidin-1-yl)ethoxy)-7-(3-hydroxynaphthalen-1-yl)-5,6,7,8-tetrahydropyrido[3,4-d]pyrimidin-4-yl)piperazin-1-yl)prop-2-en-1-one]	6.00 to 10.00
C=CC(=O)N1CCN(c2nc(OCCCN3CCOCC3)nc3c2CCN(c2cc(C(F)F)cc4ccccc24)C3)CC1 [Example 112, 1-(4-(7-(3-(difluoromethyl)naphthalen-1-yl)-2-(3-morpholinopropoxy)-5,6,7,8-tetrahydropyrido[3,4-d]pyrimidin-4-yl)piperazin-1-yl)prop-2-en-1-one]	< 6.00
C=CC(=O)N1CCN(c2ncnc3c2CC(=O)N(c2cc(O)cc4ccccc24)C3)CC1 [Example 113, 4-(4-acryloylpiperazin-1-yl)-7-(3-hydroxynaphthalen-1-yl)-7,8-dihydropyrido[3,4-d]pyrimidin-6(5H)-one]	< 6.00
C=CC(=O)N1CC2(C1)CN(c1ncnc3c1CC(=O)N(c1cc(O)cc4ccccc14)C3)C2 [Example 114, 4-(6-acryloyl-2,6-diazaspiro[3.3]heptan-2-yl)-7-(3-hydroxynaphthalen-1-yl)-7,8-dihydropyrido[3,4-d]pyrimidin-6(5H)-one]	< 6.00
C=CC(=O)N1CCN(c2nc(O[C@H](C)CN(C)C)nc3c2CCN(c2cc(O)cc4ccccc24)C3)[C@@H](C)C1 [Example 115, 1-((S)-4-(2-(((R)-1-(dimethylamino)propan-2-yl)oxy)-7-(3-hydroxynaphthalen-1-yl)-5,6,7,8-tetrahydropyrido[3,4-d]pyrimidin-4-yl)-3-methylpiperazin-1-yl)prop-2-en-1-one]	6.00 to 10.00
C=CC(=O)N1CCN(c2nc(OCCN(C)C)nc3c2CCN(c2cc(O)cc4ccccc24)C3)[C@@H](C)C1 [Example 116, (S)-1-(4-(2-(2-(dimethylamino)ethoxy)-7-(3-hydroxynaphthalen-1-yl)-5,6,7,8-tetrahydropyrido[3,4-d]pyrimidin-4-yl)-3-methylpiperazin-1-yl)prop-2-en-1-one]	6.00 to 10.00
C=CC(=O)N1CCN(c2nc(OCCN3CCOCC3)nc3c2CCN(c2cc(O)cc4ccccc24)C3)CC1 [Example 117, 1-(4-(7-(3-hydroxynaphthalen-1-yl)-2-(2-morpholinoethoxy)-5,6,7,8-tetrahydropyrido[3,4-d]pyrimidin-4-yl)piperazin-1-yl)prop-2-en-1-one]	< 6.00
C=CC(=O)N1CCN(c2nc(N3CCOCC3)nc3c2CCN(c2cc(O)cc4ccccc24)C3)CC1 [Example 118, 1-(4-(7-(3-hydroxynaphthalen-1-yl)-2-morpholino-5,6,7,8-tetrahydropyrido[3,4-d]pyrimidin-4-yl)piperazin-1-yl)prop-2-en-1-one]	< 6.00
C=CC(=O)N1CCN(c2nc(N3CCCC3)nc3c2CCN(c2cc(O)cc4ccccc24)C3)CC1 [Example 119, 1-(4-(7-(3-hydroxynaphthalen-1-yl)-2-(pyrrolidin-1-yl)-5,6,7,8-tetrahydropyrido[3,4-d]pyrimidin-4-yl)piperazin-1-yl)prop-2-en-1-one]	< 6.00
C=CC(=O)N1CCN(c2nc(O[C@H](C)CN3CCCC3)nc3c2CCN(c2cc(O)cc4ccccc24)C3)CC1 [Example 120, (R)-1-(4-(7-(3-hydroxynaphthalen-1-yl)-2-((1-(pyrrolidin-1-yl)propan-2-yl)oxy)-5,6,7,8-tetrahydropyrido[3,4-d]pyrimidin-4-yl)piperazin-1-yl)prop-2-en-1-one]	6.00 to 10.00

Second part, the molecule after the results:

pIC50	SMILES
< 6.00	C=CC(=O)N1CCN(c2nc(OCCCN3CCOCC3)nc3c2CCN(c2cc(O)cc4ccccc24)C3=O)CC1 [Example 121, 4-(4-acryloylpiperazin-1-yl)-7-(3-hydroxynaphthalen-1-yl)-2-(3-morpholinopropoxy)-6,7-dihydropyrido[3,4-d]pyrimidin-8(5H)-one]
< 6.00	C[C@H](CN(C)C)Oc1nc2c(c(N3CCN(C(=O)/C=C/CN(C)C)CC3)n1)CCN(c1cc(O)cc3ccccc13)C2 [Example 122, (R,E)-4-(dimethylamino)-1-(4-(2-((1-(dimethylamino)propan-2-yl)oxy)-7-(3-hydroxynaphthalen-1-yl)-5,6,7,8-tetrahydropyrido[3,4-d]pyrimidin-4-yl)piperazin-1-yl)but-2-en-1-one bis-trifluoroacetate]
< 6.00	C=CC(=O)N1CCN(c2nc(OCC(O)CN3CCOCC3)nc3c2CCN(c2cc(O)cc4ccccc24)C3)CC1 (stereo not drawn) [Example 123, 1-(4-(2-(2-hydroxy-3-morpholinopropoxy)-7-(3-hydroxynaphthalen-1-yl)-5,6,7,8-tetrahydropyrido[3,4-d]pyrimidin-4-yl)piperazin-1-yl)prop-2-en-1-one]
< 6.00	C=CC(=O)N1CCN(c2nc(O[C@H](C)CN(C)C)nc3c2CCN(c2cc(O)c(F)c4ccccc24)C3)CC1 [Example 124, (R)-1-(4-(2-((1-(dimethylamino)propan-2-yl)oxy)-7-(4-fluoro-3-hydroxynaphthalen-1-yl)-5,6,7,8-tetrahydropyrido[3,4-d]pyrimidin-4-yl)piperazin-1-yl)prop-2-en-1-one]
< 6.00	C=CC(=O)N1CCN(c2nc(O[C@H](C)CN(C)C)nc3c2CCN(c2cc(O)c(Cl)c4ccccc24)C3)CC1 [Example 125, (R)-1-(4-(7-(4-chloro-3-hydroxynaphthalen-1-yl)-2-((1-(dimethylamino)propan-2-yl)oxy)-5,6,7,8-tetrahydropyrido[3,4-d]pyrimidin-4-yl)piperazin-1-yl)prop-2-en-1-one]
< 6.00	C=CC(=O)N1CCN(c2nc(OCCc3ccccn3)nc3c2CCN(c2cc(O)cc4ccccc24)C3)CC1 [Example 126, 1-(4-(7-(3-hydroxynaphthalen-1-yl)-2-(2-(pyridin-2-yl)ethoxy)-5,6,7,8-tetrahydropyrido[3,4-d]pyrimidin-4-yl)piperazin-1-yl)prop-2-en-1-one trifluoroacetate]
< 6.00	C=CC(=O)N1CCN(c2nc(N3CC(N(C)C)C3)nc3c2CCN(c2cc(O)cc4ccccc24)C3)CC1 [Example 128, 1-(4-(2-(3-(dimethylamino)azetidin-1-yl)-7-(3-hydroxynaphthalen-1-yl)-5,6,7,8-tetrahydropyrido[3,4-d]pyrimidin-4-yl)piperazin-1-yl)prop-2-en-1-one]
6.00 to 10.00	C=CC(=O)N1CCN(c2nc(O[C@H](C)[C@H]3CCCN3C)nc3c2CCN(c2cc(O)cc4ccccc24)C3)CC1 [Example 129, 1-[4-[7-(3-hydroxy-1-naphthyl)-2-[(1R)-1-[(2R)-1-methylpyrrolidin-2-yl]ethoxy]-6,8-dihydro-5H-pyrido[3,4-d]pyrimidin-4-yl]piperazin-1-yl]prop-2-en-1-one]
6.00 to 10.00	C=CC(=O)N1CCN(c2nc(O[C@@H](C)[C@@H]3CCCN3C)nc3c2CCN(c2cc(O)cc4ccccc24)C3)CC1 [Example 130, 1-(4-(7-(3-hydroxynaphthalen-1-yl)-2-((S)-1-((S)-1-methylpyrrolidin-2-yl)ethoxy)-5,6,7,8-tetrahydropyrido[3,4-d]pyrimidin-4-yl)piperazin-1-yl)prop-2-en-1-one]
6.00 to 10.00	C=CC(=O)N1CCN(c2nc(OCC3CCN(C4CCCCC4)C3)nc3c2CCN(c2cc(O)cc4ccccc24)C3)CC1 (stereo not drawn) [Example 132, 1-[4-[2-[(1-cyclohexylpyrrolidin-3-yl)methoxy]-7-(3-hydroxy-1-naphthyl)-6,8-dihydro-5H-pyrido[3,4-d]pyrimidin-4-yl]piperazin-1-yl]prop-2-en-1-one]
< 6.00	C=CC(=O)N1CCN(c2nc(NCCCN3CCOCC3)nc3c2CCN(c2cc(O)cc4ccccc24)C3)CC1 [Example 133, 1-[4-[7-(3-hydroxy-1-naphthyl)-2-(3-morpholinopropylamino)-6,8-dihydro-5H-pyrido[3,4-d]pyrimidin-4-yl]piperazin-1-yl]prop-2-en-1-one]
